Data reported in US20250230138A1, “COMPOUNDS HAVING A T-STRUCTURE FORMED BY AT LEAST FOUR CYCLES FOR USE IN THE TREATMENT OF CANCER AND OTHER INDICATIONS” (TheRas, Inc., priority 2022, published 2025).
Read-outs that look alike come from different tables or passages of the source.

Assays:
[1] = molecular target: Cys242 in human PIK3CA (157-299) (Homo sapiens (Human), UniProt P42336); test: Covalent modification assay using MALDI-TOF MS; type: biochemical; conditions: 4 h reaction time point; 3.33 μM protein target, 1:7.5 protein to compound ratio (compounds 1-852)
Description: Matrix-Assisted Laser Desorption Ionization-Time of Flight Mass Spectrometry (MALDI-TOF MS) analysis of covalent modification of Cys242 in human PIK3CA (157-299) was performed.
Reaction: 3.33 μM or 1 μM of PIK3CA (157-299) protein (produced in-house by Protein Expression Laboratory, FNLCR/Leidos Biomed) in 20 mM HEPES buffer containing 150 mM NaCl, 2 mM MgCl2, pH 7.3 was prepared freshly before assay. Twelve-μL aliquots of protein were dispensed onto low volume 384-well plate, then 470 nL DMSO and 30 nL of tested compounds from 10 mM DMSO stocks were added to appropriate wells using ECHO 555 acoustic liquid handler (Labcyte Inc.). For each reaction/assay, three blanks were prepared by mixing 12 μL of protein solution with 500 nL DMSO. The wells content was carefully mixed by aspiration, and then the plate was sealed by an adhesive cover, centrifuged at 931 g for 1 minute, and kept in the dark at room temperature until 15 min, 30 min, 2 h, or 4 h collections.
Targetpretreatment: Before each assay MALDI target (Bruker MPT 384 ground steel BC) was pre-treated by pipetting on each spot 0.75 μL of saturated sinapinic acid in acetonitrile (ACN).
Sample preparation: At collection time point, 2 μL of reaction mixtures were pipetted out into […] MALDI matrix solution (saturated solution of sinapinic acid in 1:1 ACN:water solution containing 0.15% trifluoroacetic acid (TFA)) deposited on 384 well polypropylene plate. The resulting solution was mixed by aspiration, centrifuged at 931 g for 1 minute, then 1.5 μL aliquots were dispensed on pre-treated MALDI target using Beckman Coulter Biomek FX^P 96/384-Span-8 Laboratory Automation Workstation. Finally, the MALDI target was dried under a mild vacuum to produce spots with a fine crystalline structure.
Measurements: MALDI-TOF measurements were performed on Bruker Daltonics rapifleX Tissuetyper TOF-TOF mass spectrometer using linear mode and mass ranging from 16.0 to 19.6 kDa. Detector gain was set to 0.64×(459 V), sample rate to 5 GS/s, real-time smoothing to medium (175 MHz), laser smart beam pattern was set to “Custom” single smartbeam beam scan with a scan range of 40 μm on both X and Y axis, and the laser frequency was 10000 Hz. Spectra were automatically collected using the custom AutoXecute method. Laser power was auto adjusted using fuzzy control. The peak selection range was set to be between 16.0 and 18.5 kDa. Peak evaluation uses a half-width parameter set to be smaller than 40 Da for processed spectrograms (centroid peak detection; smoothed by SavitzkyGolay algorithm using 7 m/z width and 2 cycles; baseline was subtracted using a median algorithm with flatness 1 and median level 0). Fuzzy control used Proteins/Oligonucleotides protocol with minimum half-width 1/10 times above threshold. Up to 40000 satisfactory shots were collected in 10000 short steps. Dynamic termination was implemented to finish data collection when the peak signal/noise ratio was reaching a value of 1000.
Spectra processing: Spectra were smoothed by SavitzkyGolay algorithm using 7 m/z width and three cycles. Centroid peak detection algorithm was used with signal to noise threshold set to 6, relative intensity threshold 3%, peak width 10 m/z, and median baseline subtraction using flatness of 1 and the median level of 0.1. Peak intensity and area under the peak were evaluated and recorded for all peaks between 16.0 and 19.5 kDa.
Calculation of percent modification: Percent modification was calculated as a ratio of peak height for protein modified by compound to the sum of the peak height of remaining protein plus peak height for protein modified by a compound. If multiple modifications were observed each was calculated as a ratio of peak height for given modification versus the sum of peak heights for all observed protein species.

[2] = tested on: pAKT in BT474 cells; test: Cell-based pAKT HTRF assay in BT474 cells; conditions: BT474 cells, 4 hr incubation, Compounds 10-999, read-out: pAKT inhibition IC50 in BT474 cells
Description: On Day 1, cells were seeded into 96-well plates at 2.5×10^4 cells/well in complete growth media (DMEM, 10% FBS). On Day 2, cells were treated with compounds at 0.25% DMSO. The source plate was created with compounds diluted in media at 5-fold the final assay concentration. The compounds are run in a 9-point concentration curve starting at 3 μM, with a 3-fold dilution between concentrations. 20 μL was transferred onto the cell plates (final volume in wells was 100 μL). Plates were harvested after 4 hr incubation by aspirating media and adding kit-supplied 1× supplemented lysis buffer to all wells (75 μL per well). Plates were then placed on a plate shaker and incubated at 850 rpm for an additional 30 min. The antibody mixture solution was prepared by diluting aliquoted d2 and Eu Cryptate antibodies 1:20 in kit supplied detection buffer, then mixed the diluted antibodies solutions (1:1 v:v). 4 μL of this solution was then added to a 384-well detection plate (Perkin Elmer; 6008230). Samples were homogenized by pipetting up and down and then transferred (16 μL of cell lysates) from the 96-well cell culture plate to two wells of the HTRF 384-well detection plate containing the antibody solution. Plates were centrifuged (524 g for 1 min) and allowed to incubate between 4 and 24 h at room temperature. The maximum signal is reached after 4 h incubation time and remains stable over a period of 24 hours. Therefore, readings can be made between 4 and 24 h of incubation. Plates were centrifuged again (524 g for 1 m), and analyzed on the EnVision plate reader using the following settings: Excitation 320 nm, Bandwidth […]; Emission 615 nm, Bandwidth […], Gain 10000, Flashes 100, Lag 60 μs.

Sequence of Cys242 in human PIK3CA (157-299) (P42336 157-299): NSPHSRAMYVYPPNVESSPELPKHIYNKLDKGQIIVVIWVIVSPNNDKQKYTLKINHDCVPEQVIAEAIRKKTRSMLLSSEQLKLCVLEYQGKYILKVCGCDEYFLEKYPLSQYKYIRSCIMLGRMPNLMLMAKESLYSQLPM

Row | IC50 [2] [nM] | IC50 ([2]; Homo sapiens, BT-474) [nM] | Structure (SMILES) | % of modification [1]
1 | < 100 |  | C=CC(=O)N1CC(n2cc(-c3nc(-c4cnn(C)c4)c4ccsc4c3-c3ccc(F)cc3OC)cn2)C1 [Compound 76] | A (percent of modification of PIK3CA protein ≥75%)
2 | < 100 |  | C=CC(=O)N1CC(n2cc(-c3nc(-c4ccc5c(c4)CNC(=O)C5)c4ccsc4c3-c3ccc(F)cc3OC)cn2)C1 [Compound 79] | A (percent of modification of PIK3CA protein ≥75%)
3 | 100 to 1000 |  | C=CC(=O)N1CCc2ccc(-c3nc(-c4ccc5c(c4)CNC(=O)C5)c4ccsc4c3-c3ccc(F)cc3OC)cc2C1 [Compound 80] | A (percent of modification of PIK3CA protein ≥75%)
4 |  | < 100 | C=CC(=O)N1CC(n2cc(-c3nc(-c4ccc5c(c4)CCNC5)c4ccsc4c3-c3ccc(F)cc3OC)cn2)C1 [Compound 82, 1-[3-[4-[7-(4-fluoro-2-methoxy-phenyl)-4-(1,2,3,4-tetrahydroisoquinolin-6-yl)thieno[3,2-c]pyridin-6-yl]pyrazol-1-yl]azetidin-1-yl]prop-2-en-1-one] | A (percent of modification of PIK3CA protein ≥75%)
5 |  | 1000 to 3000 | C=CC(=O)N1CC(n2cc(-c3nc(-c4ccc5c(c4)CNC(=O)C5)c4ccsc4c3-c3cccnc3OC)cn2)C1 [Compound 84, 7-[7-(2-methoxy-3-pyridyl)-6-[1-(1-prop-2-enoylazetidin-3-yl)pyrazol-4-yl]thieno[3,2-c]pyridin-4-yl]-2,4-dihydro-1H-isoquinolin-3-one] | B (50%<percent of modification <75%)
6 | > 3000 |  | C=CC(=O)N1CC(n2cc(-c3nc(-c4ccc5c(c4)CNC(=O)C5)c4ccsc4c3-c3ccc[nH]c3=O)cn2)C1 [Compound 91] | D (percent of modification <25%)
7 | < 100 |  | C=CC(=O)N1CC(n2cc(-c3nc(-c4ccc5c(c4)CS(=O)(=O)C5)c4ccsc4c3-c3ccc(F)cc3OC)cn2)C1 [Compound 95] | A (percent of modification of PIK3CA protein ≥75%)

The remaining lines, values behind:

Row | Structure (SMILES) | IC50 [2] [nM] | IC50 ([2]; Homo sapiens, BT-474) [nM] | % of modification [1]
8 | C=CC(=O)N1CCC(n2cc(-c3nc(-c4ccc5c(c4)CNC(=O)C5)c4ccsc4c3-c3ccccc3)cn2)CC1 [Compound 75] | > 3000 |  | B (50%<percent of modification <75%)
9 | C=CC(=O)N1CCn2ncc(-c3nc(-c4ccc5c(c4)CCNC5)c4ccsc4c3-c3ccc(F)cc3OCCOC)c2C1 [Compound 77] | > 3000 |  | D (percent of modification <25%)
10 | C=CC(=O)N1CC(n2cc(-c3nc(-c4ccc5c(c4)CCN(C)C5)c4ccsc4c3-c3ccc(F)cc3OCCOC)cn2)C1 [Compound 78] | < 100 |  | A (percent of modification of PIK3CA protein ≥75%)
11 | C=CC(=O)N1CCc2ccc(-c3nc(-c4ccc5c(c4)CCN(C)C5)c4ccsc4c3-c3ccc(F)cc3OCCOC)cc2C1 [Compound 83] | < 100 |  | A (percent of modification of PIK3CA protein ≥75%)
12 | C=CC(=O)N1CC(n2cc(-c3nc(-c4ncn(C)n4)c4ccsc4c3-c3ccc(F)cc3OCCOC)cn2)C1 [Compound 85] | 100 to 1000 |  | A (percent of modification of PIK3CA protein ≥75%)
13 | C=CC(=O)N1CCc2ncc(-c3nc(-c4ccc5c(c4)CCNC5)c4ccsc4c3-c3ccc(F)cc3OC)cc2C1 [Compound 86] | < 100 |  | A (percent of modification of PIK3CA protein ≥75%)
14 | C=CC(=O)N1CCc2nc(-c3nc(-c4ccc5c(c4)CCNC5)c4ccsc4c3-c3ccc(F)cc3OC)sc2C1 [Compound 87, 1-[2-[7-(4-fluoro-2-methoxy-phenyl)-4-(1,2,3,4-tetrahydroisoquinolin-6-yl)thieno[3,2-c]pyridin-6-yl]-6,7-dihydro-4H-thiazolo[5,4-c]pyridin-5-yl]prop-2-en-1-one] |  | 100 to 1000 | A (percent of modification of PIK3CA protein ≥75%)
15 | C=CC(=O)N1CCc2ncc(-c3nc(-c4ccc5c(c4)CCNC5)c4c(c3-c3ccc(F)cc3OCCOC)CCC4)cc2C1 [Compound 88] | < 100 |  | A (percent of modification of PIK3CA protein ≥75%)
16 | C=CC(=O)N1CCc2ncc(-c3nc(-c4ccc5c(c4)CCNC5)c4c(c3-c3ccc(F)cc3OC)CCC4)cc2C1 [Compound 89, 1-[3-[4-(4-fluoro-2-methoxy-phenyl)-1-(1,2,3,4-tetrahydroisoquinolin-6-yl)-6,7-dihydro-5H-cyclopenta[c]pyridin-3-yl]-7,8-dihydro-5H-1,6-naphthyridin-6-yl]prop-2-en-1-one] |  | 100 to 1000 | A (percent of modification of PIK3CA protein ≥75%)
17 | C=CC(=O)N1CC(n2cc(-c3nc(-c4ccc5c(c4)CCNC5)c4ccsc4c3-c3cnn(C)c3)cn2)C1 [Compound 90] | > 3000 |  | D (percent of modification <25%)
18 | C=CC(=O)N1CCC(n2cc(-c3nc(-c4ccc5c(c4)CCNC5)c4ccsc4c3-c3ccc(F)cc3C#N)cn2)CC1 [Compound 93] | > 3000 |  | C (25%≤percent of modification <50%)
19 | C=CC(=O)N1CCC(n2cc(-c3nc(-c4ccc5c(c4)CS(=N)(=O)C5)c4ccsc4c3-c3ccc(F)cc3OCCOC)cn2)CC1 (centres unmarked) [Compound 94] | < 100 |  | A (percent of modification of PIK3CA protein ≥75%)
20 | C=CC(=O)N1CCc2nc(-c3nc(-c4ccc5c(c4)CCNC5)c4c(c3-c3ccc(F)cc3OC)CCC4)sc2C1 [Compound 96, 1-[2-[4-(4-fluoro-2-methoxy-phenyl)-1-(1,2,3,4-tetrahydroisoquinolin-6-yl)-6,7-dihydro-5H-cyclopenta[c]pyridin-3-yl]-6,7-dihydro-4H-thiazolo[5,4-c]pyridin-5-yl]prop-2-en-1-one] |  | 100 to 1000 | A (percent of modification of PIK3CA protein ≥75%)
21 | C=CC(=O)N1CC(n2cc(-c3nc(-c4ccc5c(c4)CCNC5)c4c(c3-c3ccc(F)cc3OC)CCC4)cn2)C1 [Compound 97, 1-[3-[4-[4-(4-fluoro-2-methoxy-phenyl)-1-(1,2,3,4-tetrahydroisoquinolin-6-yl)-6,7-dihydro-5H-cyclopenta[c]pyridin-3-yl]pyrazol-1-yl]azetidin-1-yl]prop-2-en-1-one] |  | 100 to 1000 | A (percent of modification of PIK3CA protein ≥75%)
22 | C=CC(=O)N1CC(n2cc(-c3nc(N4CCC5(CC4)CNC5)c4ccsc4c3-c3ccc(F)cc3OCCOC)cn2)C1 [Compound 98] | 1000 to 3000 |  | A (percent of modification of PIK3CA protein ≥75%)
